# B1: TIMP-4: tissue inhibitor of metalloproteinase, protein inhibitor of MMPs (protein, UniProt Q99727 30-224, looked up)
# Metalloproteinase inhibitor 4: CSCAPAHPQQHICHSALVIRAKISSEKVVPASADPADTEKMLRYEIKQIKMFKGFEKVKDVQYIYTPFDSSLCGVKLEANSQKQYLLTGQVLSDGKVFIHLCNYIEPWEDLSLVQRESLNHHYHLNCGCQITTCYTVPCTISAPNECLWTDWLLERKLYGYQAQHYVCMKHVDGTCSWYRGHLPLRKEFVDIVQP
# Legend:
# [1] = molecular target: MMP-2 (Homo sapiens (Human), UniProt P08253); conditions: literature / previously reported; cited from earlier work
# [2] = molecular target: MMP-9 (Homo sapiens (Human), UniProt P14780); conditions: at 50,000 nM; Gooyit et al. 2013; cited from earlier work
# [3] = test system: diabetic (db/db) mice; experiment: Mouse diabetic wound model; format: in vivo; conditions: for wound healing versus vehicle: 0.25 mg/wound/day; for wound healing versus vehicle / wound closure: db/db mice; for wound closure: 0.25 mg/wound/day topical
# Text: The excisional mouse diabetic model validated by Sullivan et al. was used (Sullivan et al., Plast. Reconstr. Surg. (2004) 113, 953-960). The procedure for inflicting the wounds (single 8 mm wound on the dorsal region) was the same as described previously (Gooyit et al., ACS Chem. Biol. (2014) 9, 505-510). Wounds were photographed and covered with a sterile 3M Tegaderm™ transparent dressing (Butler Schein Animal Health, Inc.).
# Female diabetic db/db (BKS.Cg-Dock7m+/+Leprdb/J, 8-weeks old, 38±3 g, n=24) were used for this study. Wounds were inflicted as described. Treatment with the MMP-2 inhibitor (50 μL of 5.0 mg/mL in 80% propylene glycol/20% DMSO, equivalent to 0.25 mg per wound) or vehicle (50 μL of 80% propylene glycol/20% DMSO) was started one day after wound infliction and continued once a day for 14 days. Digital photographs of wounds were taken on days 0, 7, 10, and 14 while the animals were under isoflurane anesthesia. On day 14, all mice were sacrificed. The wounds were excised, embedded in optimal cutting temperature (OCT) compound, and cryosectioned for histological evaluation.
# Female diabetic db/db (BKS.Cg-Dock7m+/+Leprdb/J, 8-weeks old, 38±3 g, n=24) were used for this study. Wounds were inflicted and the following day the wounds were treated topically with MMP-8 (50 μL of 20 μg/mL MMP-8 in reaction buffer) or vehicle (50 μL reaction buffer) once a day for 14 days. The reaction buffer consisted of 50 mM Tris (pH 7.5), 10 mM CaCl2, 150 mM NaCl, and 0.05% (w/v) Brij-35. Digital photographs of the wounds were taken on days 0, 7, 10, and 14 while animals were under isoflurane anesthesia. On days 7 and 14, 12 mice (n=6 per group) were sacrificed. The wounds were excised, embedded in OCT compound, and cryosectioned for histological evaluation.
# Photographs were taken using the procedure described by Gooyit et al. (ACS Chem Biol. (2014) 9, 505-510) at a fixed distance above the wounds and calibrated using a ruler included in the photographic frame. Image J 1.48c software was used to calculate wound areas. The percentage of wound closure was calculated from the wound area on the specified day relative to that on day 0.
# Fresh wound tissue was harvested and embedded in OCT compound. Subsequently, the tissue was cryosectioned for H&E staining (12-μm thickness) and for apoptosis assays and in-situ zymography (8-μm thickness). Re-epithelialization was assessed on a Nikon Eclipse 90i Fluorescent Microscope (Nikon Instruments Inc.) as described earlier (Tkalcevic et al., Toxicol. Pathol. (2009) 37, 183-192). Apoptosis was evaluated using Derma TACS™ Apoptosis detection kits (Trevigen, Inc.) according to the manufacturer's instructions. The protocol of in-situ zymography was adapted from known methods. Gelatinolytic activity was detected in unfixed cryostat sections using DQ-gelatin as a substrate. DQ-gelatin was prepared at a concentration of 20 μg/mL in Tris-buffered saline (TBS) buffer (50 mM TBS pH 7.6, 1 mM CaCl2). A general MMP inhibitor in 0.5 mM EDTA was prepared as a negative control. Cryostat sections were air-dried for 10 min and incubated in the substrate mixture in the presence and absence of EDTA for 1 hr at room temperature. After the incubation period, the slides were washed in PBS (three times, 5 min each), fixed with 4% paraformaldehyde in PBS for 10 min in the dark, washed again with PBS (three times, 5 min each), incubated in the dark for 5 min with 300 nM DAPI solution, and mounted with anti-quenching mounting medium. Fluorescence of FITC was detected with excitation at 460-500 nm and emission at 512-542 nm. DAPI was detected with excitation at 340-380 nm and emission at 425-∞ nm.
# Data are expressed as mean±SD. Wound healing between the groups in the studies were analyzed for statistical significance using a paired Student t-test, where p<0.05 was considered statistically significant.
# [4] = molecular target: ADAM10 (Homo sapiens (Human), UniProt O14672); experiment: Enzyme inhibition studies, ADAM10; format: biochemical
# [5] = test system: non-diabetic wounds; experiment: Healing of non-diabetic wounds; format: in vivo, mice; conditions: in words
# [6] = molecular target: MMP-7 (Homo sapiens (Human), UniProt P09237); conditions: at 250 μM; data from Gooyit et al. 2014; cited from earlier work
# [7] = molecular target: ADAM9 (Homo sapiens (Human), UniProt Q13443); experiment: Enzyme inhibition studies, ADAM9; format: biochemical
# [8] = molecular target: MMP-1 (Homo sapiens (Human), UniProt P03956); conditions: at 250 μM; data from Gooyit et al. 2014; cited from earlier work
# [9] = physchem; conditions: water, thermodynamic from solid
# [10] = test system: non-diabetic wounds; conditions: rats, pigs, and humans; in words; cited from earlier work
# [11] = molecular target: MMP-14 (Homo sapiens (Human), UniProt P50281); conditions: literature; cited from earlier work
# Sequence of MMP-1 (P03956 98-276): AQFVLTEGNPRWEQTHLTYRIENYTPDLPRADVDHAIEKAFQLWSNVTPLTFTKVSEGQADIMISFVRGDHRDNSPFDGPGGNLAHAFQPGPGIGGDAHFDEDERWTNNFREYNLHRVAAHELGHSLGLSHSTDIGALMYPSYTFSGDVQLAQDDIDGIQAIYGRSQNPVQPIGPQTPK
# Sequence of ADAM9 (Q13443 206-697): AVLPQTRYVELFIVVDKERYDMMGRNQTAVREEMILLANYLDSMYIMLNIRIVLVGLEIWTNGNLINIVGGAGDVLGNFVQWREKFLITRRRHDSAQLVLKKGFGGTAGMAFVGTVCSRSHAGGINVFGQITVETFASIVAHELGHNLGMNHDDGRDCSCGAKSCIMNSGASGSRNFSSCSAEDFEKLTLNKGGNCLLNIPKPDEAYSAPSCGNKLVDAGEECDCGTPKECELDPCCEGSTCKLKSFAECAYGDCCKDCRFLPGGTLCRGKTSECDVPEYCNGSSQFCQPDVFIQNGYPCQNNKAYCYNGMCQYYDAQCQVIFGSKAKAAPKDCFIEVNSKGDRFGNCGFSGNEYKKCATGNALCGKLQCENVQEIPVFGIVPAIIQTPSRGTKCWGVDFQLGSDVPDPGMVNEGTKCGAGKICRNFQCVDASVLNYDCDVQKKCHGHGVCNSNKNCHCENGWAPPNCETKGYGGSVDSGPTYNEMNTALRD
# Sequence of ADAM10 (O14672 214-672): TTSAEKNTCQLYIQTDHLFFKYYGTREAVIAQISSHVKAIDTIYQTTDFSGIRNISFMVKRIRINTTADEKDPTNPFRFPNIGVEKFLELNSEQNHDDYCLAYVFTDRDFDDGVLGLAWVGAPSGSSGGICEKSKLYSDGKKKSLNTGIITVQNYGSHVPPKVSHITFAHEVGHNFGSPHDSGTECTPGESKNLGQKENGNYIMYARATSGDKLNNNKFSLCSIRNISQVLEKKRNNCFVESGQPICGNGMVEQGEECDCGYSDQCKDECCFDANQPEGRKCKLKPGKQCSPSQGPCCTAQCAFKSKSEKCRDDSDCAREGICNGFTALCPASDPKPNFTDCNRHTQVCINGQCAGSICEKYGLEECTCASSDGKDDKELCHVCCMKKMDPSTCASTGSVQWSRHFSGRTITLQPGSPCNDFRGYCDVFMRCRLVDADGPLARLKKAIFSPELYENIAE
# Sequence of MMP-9 (P14780 107-444): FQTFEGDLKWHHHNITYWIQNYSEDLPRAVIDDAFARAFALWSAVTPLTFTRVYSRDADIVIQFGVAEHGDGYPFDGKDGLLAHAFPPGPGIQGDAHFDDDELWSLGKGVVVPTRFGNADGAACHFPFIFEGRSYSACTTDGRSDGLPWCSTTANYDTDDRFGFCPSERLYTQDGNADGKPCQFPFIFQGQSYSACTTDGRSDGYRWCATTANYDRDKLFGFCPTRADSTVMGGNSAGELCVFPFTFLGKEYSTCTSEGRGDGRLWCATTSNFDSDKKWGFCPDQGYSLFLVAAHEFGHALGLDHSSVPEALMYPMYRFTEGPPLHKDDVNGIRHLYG
# Sequence of MMP-7 (P09237 95-267): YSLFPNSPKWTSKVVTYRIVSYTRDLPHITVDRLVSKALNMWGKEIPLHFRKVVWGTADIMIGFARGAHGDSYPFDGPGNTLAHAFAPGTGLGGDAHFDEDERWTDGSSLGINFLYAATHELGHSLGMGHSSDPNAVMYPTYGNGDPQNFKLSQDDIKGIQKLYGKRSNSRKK
# Sequence of MMP-2 (P08253 110-660): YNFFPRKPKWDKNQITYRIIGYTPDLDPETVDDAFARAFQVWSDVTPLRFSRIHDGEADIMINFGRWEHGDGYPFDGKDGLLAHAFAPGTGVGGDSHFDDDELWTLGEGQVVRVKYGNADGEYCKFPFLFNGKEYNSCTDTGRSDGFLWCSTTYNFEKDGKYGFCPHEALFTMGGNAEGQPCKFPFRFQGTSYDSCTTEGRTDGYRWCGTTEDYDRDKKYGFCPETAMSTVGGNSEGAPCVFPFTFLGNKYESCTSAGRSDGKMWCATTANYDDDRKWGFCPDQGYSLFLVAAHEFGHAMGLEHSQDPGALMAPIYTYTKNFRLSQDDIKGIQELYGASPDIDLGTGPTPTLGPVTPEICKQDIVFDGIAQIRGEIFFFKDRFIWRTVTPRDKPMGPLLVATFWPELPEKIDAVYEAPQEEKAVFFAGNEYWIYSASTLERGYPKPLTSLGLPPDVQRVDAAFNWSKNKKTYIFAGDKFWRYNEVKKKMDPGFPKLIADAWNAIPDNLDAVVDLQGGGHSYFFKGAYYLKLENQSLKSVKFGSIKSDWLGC
molecule,measurement,setting,value
CCNC(=O)Nc1ccc(Oc2ccc(S(=O)(=O)CC3CS3)cc2)cc1 (centres unmarked) [Compound 1x],residence time bound to MMP-2,[1],24.5 min
same,MMP-9 inhibition,[2],28%
same,wound healing versus vehicle,[3]; in words,No significant differences
same,wound healing versus vehicle,"[3]; in words, listed as MMP-2 inhibitor",No differences were observed between the groups
same,re-epithelialization,"[3]; H&E staining, day 14, in words",Partial re-epithelialization
same,wound closure,[3]; day 7,23±16%
same,wound closure,[3]; day 10,45±11%
same,wound closure,[3]; day 14,70±15%
Nc1ccc(Oc2ccc(S(=O)(=O)CC3CS3)cc2)cc1 (centres unmarked) [Compound 2],inhibition at 20 µM,[4],21%
same,effect on non-diabetic wounds,[5],does not show any effect
same,Inhibition,[6],"16%^i, j"
same,inhibition at 20 µM,[7],30%
same,Inhibition,[8],"10%^i, j"
same,healing of diabetic wounds,"[3]; selective MMP-9 inhibition, in words",healed more rapidly
same,solubility,[9],4900 µg/mL
CNC(=O)[C@H](Cc1c[nH]c2ccccc12)NC(=O)[C@@H](CC(=O)NO)CC(C)C [ilomastat],wound closure and epithelialization in non-diabetic wounds,[10],delayed wound closure and diminished epithelialization
B1,residence time bound to MMP-14,[11],39 min

# From patent US9951035B2, “Selective matrix metalloproteinase inhibitors” (University of Notre Dame du Lac, priority 2014, dated 2018)
